Legend:
[1] = compound: CC1(CCN(CC1)C2=CN=C(C(=N2)N)C3=C(C(=CC=C3)Cl)Cl)N [SHP099]
[2] = compound: CC(=O)O[C@H]1C(=O)[C@@]2(C)[C@H]([C@H](OC(=O)c3ccccc3)[C@]3(O)C[C@H](OC(=O)[C@H](O)[C@@H](NC(=O)c4ccccc4)c4ccccc4)C(C)=C1C3(C)C)[C@]1(OC(C)=O)CO[C@@H]1C[C@@H]2O [Paclitaxel]
[3] = compound: O=C(CCCCCCC(=O)Nc1ccccc1)NO [Vorinostat]
[4] = compound: Nc1cc(C(F)(F)F)c(-c2cc(N3CCOCC3)nc(N3CCOCC3)n2)cn1 [Buparlisib/NVP-BKM120]
[5] = compound: COc1cc2nccc(Oc3ccc(NC(=O)C4(C(=O)Nc5ccc(F)cc5)CC4)cc3)c2cc1OC [Cabozantinib]
[6] = compound: CCc1cnn2c(NCc3ccc[n+]([O-])c3)cc(N3CCCC[C@H]3CCO)nc12
[7] = compound: CC(=O)c1c(C)c2cnc(Nc3ccc(N4CCN(CCOCCOCCOCCNC(=O)COc5cccc6c5C(=O)N(C5CCC(=O)NC5=O)C6=O)CC4)cn3)nc2n(C2CCCC2)c1=O [BSJ-03-123]
[8] = compound: CC(=O)c1c(C)c2cnc(Nc3ccc(N4CCNCC4)cn3)nc2n(C2CCCC2)c1=O; assay: GR value, 72 h; higher = faster growth (1 = untreated, <0 = killing);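 further: breast cancer and non-malignant breast epithelial lines, nine half-log doses, viable cells counted by Hoechst and LIVE/DEAD dye imaging versus time-zero plates and DMSO controls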
[9] = compound: C=CC(=O)Nc1ccc(C(=O)Nc2[nH]nc3c2CN(C(=O)N[C@H](CN(C)C)c2ccccc2)C3(C)C)cc1 [YKL-5-124]; assay: as above
[10] = compound: CN(C)C/C=C/C(=O)Nc1ccc(C(=O)Nc2cccc(Nc3ncc(Cl)c(-c4c[nH]c5ccccc45)n3)c2)cc1 [THZ1]; assay: as above
[11] = compound: CN1CC[C@H](c2c(O)cc(O)c3c(=O)cc(-c4ccccc4Cl)oc23)[C@H](O)C1 [Flavopiridol]; assay: as above
[12] = compound: CN(C)C/C=C/C(=O)Nc1ccc(C(=O)N2CCC[C@@H](Nc3ncc(Cl)c(-c4c[nH]c5ccccc45)n3)C2)cc1 [THZ531]; assay: as above
[13] = compound: CN(C)C(=O)c1cc2cnc(Nc3ccc(N4CCNCC4)cn3)nc2n1C1CCCC1 [LEE011/Ribociclib]; assay: as above
[14] = compound: CCN1CCN(Cc2ccc(Nc3ncc(F)c(-c4cc(F)c5nc(C)n(C(C)C)c5c4)n3)nc2)CC1; assay: as above
[15] = compound: CCc1cnn2c(NCc3ccc[n+]([O-])c3)cc(N3CCCC[C@H]3CCO)nc12; assay: as above
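Wherever GR50, 72 h is given: breast cancer and non-malignant breast epithelial cell lines, Deep Dye Drop or Dye Drop imaging, nine half-log doses, GR normalized to time-zero plates and DMSO-only controls.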

BT474
GR50, 72 h [1]: > 10 µM
GR50, 72 h [2]: 0.00412 µM
GR50, 72 h [3]: 2.71 µM
GR50, 72 h [4]: 0.281 µM
GR50, 72 h [5]: > 10 µM
GR50, 72 h [6]: 0.0162 µM
GR50, 72 h [7]: 0.235 µM
GR value ([8]; 0.0003162 µM): 1.12 GR
GR value ([8]; 0.001 µM): 1.05 GR
GR value ([8]; 0.003162 µM): 1.11 GR
GR value ([8]; 0.01 µM): 0.918 GR
GR value ([8]; 0.03162 µM): 0.735 GR
GR value ([8]; 0.1 µM): 0.668 GR
GR value ([8]; 0.3162 µM): 0.619 GR
GR value ([8]; 1 µM): 0.611 GR
GR value ([8]; 3.162 µM): 0.544 GR
GR value ([9]; 0.001 µM): 0.506 GR
GR value ([9]; 0.003162 µM): 0.225 GR
GR value ([9]; 0.01 µM): 0.197 GR
GR value ([9]; 0.03162 µM): 0.179 GR
GR value ([9]; 0.1 µM): -0.0193 GR
GR value ([9]; 0.3162 µM): -0.106 GR
GR value ([9]; 1 µM): -0.16 GR
GR value ([9]; 3.162 µM): -0.0451 GR
GR value ([9]; 10 µM): -0.519 GR
GR value ([10]; 0.0001 µM): 1 GR
GR value ([10]; 0.0003162 µM): 0.971 GR
GR value ([10]; 0.001 µM): 0.687 GR
GR value ([10]; 0.003162 µM): 0.659 GR
GR value ([10]; 0.01 µM): 0.571 GR
GR value ([10]; 0.03162 µM): 0.441 GR
GR value ([10]; 0.1 µM): -0.627 GR
GR value ([10]; 0.3162 µM): -0.683 GR
GR value ([10]; 1 µM): -0.617 GR
GR value ([11]; 0.0001 µM): 1.17 GR
GR value ([11]; 0.0003162 µM): 0.998 GR
GR value ([11]; 0.001 µM): 0.895 GR
GR value ([11]; 0.003162 µM): 0.878 GR
GR value ([11]; 0.01 µM): 0.801 GR
GR value ([11]; 0.03162 µM): 0.959 GR
GR value ([11]; 0.1 µM): 0.935 GR
GR value ([11]; 0.3162 µM): 0.154 GR
GR value ([11]; 1 µM): -0.753 GR
GR value ([12]; 0.0001 µM): 1.09 GR
GR value ([12]; 0.0003162 µM): 0.953 GR
GR value ([12]; 0.001 µM): 0.521 GR
GR value ([12]; 0.003162 µM): 0.917 GR
GR value ([12]; 0.01 µM): 1.1 GR
GR value ([12]; 0.03162 µM): 0.881 GR
GR value ([12]; 0.1 µM): -0.388 GR
GR value ([12]; 0.3162 µM): -0.861 GR
GR value ([12]; 1 µM): -0.675 GR
GR value ([13]; 0.001 µM): 0.773 GR
GR value ([13]; 0.003162 µM): 0.676 GR
GR value ([13]; 0.01 µM): 0.849 GR
GR value ([13]; 0.03162 µM): 0.637 GR
GR value ([13]; 0.1 µM): 0.674 GR
GR value ([13]; 0.3162 µM): 0.447 GR
GR value ([13]; 1 µM): 0.532 GR
GR value ([13]; 3.162 µM): 0.6 GR
GR value ([13]; 10 µM): 0.711 GR
GR value ([14]; 0.001 µM): 1.01 GR
GR value ([14]; 0.003162 µM): 0.837 GR
GR value ([14]; 0.01 µM): 0.806 GR
GR value ([14]; 0.03162 µM): 0.594 GR
GR value ([14]; 0.1 µM): 0.62 GR
GR value ([14]; 0.3162 µM): 0.536 GR
GR value ([14]; 1 µM): 0.577 GR
GR value ([14]; 3.162 µM): 0.696 GR
GR value ([14]; 10 µM): 0.274 GR
GR value ([15]; 0.0001 µM): 1.02 GR
GR value ([15]; 0.0003162 µM): 0.963 GR
GR value ([15]; 0.001 µM): 1.17 GR
GR value ([15]; 0.003162 µM): 1.12 GR
GR value ([15]; 0.01 µM): 0.918 GR
GR value ([15]; 0.03162 µM): -0.569 GR
GR value ([15]; 0.1 µM): -0.753 GR
GR value ([15]; 0.3162 µM): -0.769 GR
GR value ([15]; 1 µM): -0.75 GR

HCC1187
GR50, 72 h [1]: > 10 µM
GR50, 72 h [2]: 0.000215 µM
GR50, 72 h [3]: 1.07 µM
GR50, 72 h [4]: 0.619 µM
GR50, 72 h [6]: 0.00577 µM
GR50, 72 h [7]: 6.39 µM
GR value ([8]; 0.0003162 µM): 0.999 GR
GR value ([8]; 0.001 µM): 1.05 GR
GR value ([8]; 0.003162 µM): 1.04 GR
GR value ([8]; 0.01 µM): 0.985 GR
GR value ([8]; 0.03162 µM): 1.05 GR
GR value ([8]; 0.1 µM): 1.09 GR
GR value ([8]; 0.3162 µM): 1.02 GR
GR value ([8]; 1 µM): 1.09 GR
GR value ([8]; 3.162 µM): 0.993 GR
GR value ([9]; 0.001 µM): 0.478 GR
GR value ([9]; 0.003162 µM): 0.459 GR
GR value ([9]; 0.01 µM): 0.209 GR
GR value ([9]; 0.03162 µM): 0.309 GR
GR value ([9]; 0.1 µM): 0.195 GR
GR value ([9]; 0.3162 µM): 0.222 GR
GR value ([9]; 1 µM): 0.0281 GR
GR value ([9]; 3.162 µM): -0.0235 GR
GR value ([9]; 10 µM): -0.529 GR
GR value ([10]; 0.0001 µM): 0.932 GR
GR value ([10]; 0.0003162 µM): 1.51 GR
GR value ([10]; 0.001 µM): 0.963 GR
GR value ([10]; 0.003162 µM): 0.885 GR
GR value ([10]; 0.01 µM): 0.645 GR
GR value ([10]; 0.03162 µM): 0.0807 GR
GR value ([10]; 0.1 µM): -0.731 GR
GR value ([10]; 0.3162 µM): -0.852 GR
GR value ([10]; 1 µM): -0.8 GR
GR value ([11]; 0.0001 µM): 0.966 GR
GR value ([11]; 0.0003162 µM): 0.963 GR
GR value ([11]; 0.001 µM): 0.368 GR
GR value ([11]; 0.003162 µM): 1 GR
GR value ([11]; 0.01 µM): 0.995 GR
GR value ([11]; 0.03162 µM): 0.961 GR
GR value ([11]; 0.1 µM): 0.805 GR
GR value ([11]; 0.3162 µM): -0.16 GR
GR value ([11]; 1 µM): -0.885 GR
GR value ([12]; 0.0001 µM): 0.932 GR
GR value ([12]; 0.0003162 µM): 1.02 GR
GR value ([12]; 0.001 µM): 0.99 GR
GR value ([12]; 0.003162 µM): 1.04 GR
GR value ([12]; 0.01 µM): 0.976 GR
GR value ([12]; 0.03162 µM): 0.879 GR
GR value ([12]; 0.1 µM): -0.437 GR
GR value ([12]; 0.3162 µM): -0.852 GR
GR value ([13]; 0.001 µM): 1.01 GR
GR value ([13]; 0.003162 µM): 0.914 GR
GR value ([13]; 0.01 µM): 0.863 GR
GR value ([13]; 0.03162 µM): 1.02 GR
GR value ([13]; 0.1 µM): 0.922 GR
GR value ([13]; 0.3162 µM): 0.984 GR
GR value ([13]; 1 µM): 0.933 GR
GR value ([13]; 3.162 µM): 0.963 GR
GR value ([13]; 10 µM): 0.933 GR
GR value ([14]; 0.001 µM): 0.974 GR
GR value ([14]; 0.003162 µM): 0.907 GR
GR value ([14]; 0.01 µM): 0.898 GR
GR value ([14]; 0.03162 µM): 0.971 GR
GR value ([14]; 0.1 µM): 1.01 GR
GR value ([14]; 0.3162 µM): 1 GR
GR value ([14]; 1 µM): 0.849 GR
GR value ([14]; 3.162 µM): 0.69 GR
GR value ([14]; 10 µM): 0.297 GR
GR value ([15]; 0.0001 µM): 0.988 GR
GR value ([15]; 0.0003162 µM): 1 GR
GR value ([15]; 0.001 µM): 1.08 GR
GR value ([15]; 0.003162 µM): 0.985 GR
GR value ([15]; 0.01 µM): 0.471 GR
GR value ([15]; 0.03162 µM): -0.689 GR
GR value ([15]; 0.1 µM): -0.797 GR
GR value ([15]; 0.3162 µM): -0.791 GR
GR value ([15]; 1 µM): -0.761 GR
